This passage reports IC50 results from patent US10793522B2, “Sulfonamides as inhibitors of the uptake of extracellular citrate” (Boehringer Ingelheim International GmbH, priority 2016, dated 2020).

Each structure is given as a SMILES string.

In this assay the target is T1, human GlyT2 (Homo sapiens, UniProt Q9Y345).
T1 construct: host or cells: HEK293 (HEK293-hGlyT2), cDNA sub-cloned into pcDNA3.1zeo
T1 sequence (Q9Y345 1-797): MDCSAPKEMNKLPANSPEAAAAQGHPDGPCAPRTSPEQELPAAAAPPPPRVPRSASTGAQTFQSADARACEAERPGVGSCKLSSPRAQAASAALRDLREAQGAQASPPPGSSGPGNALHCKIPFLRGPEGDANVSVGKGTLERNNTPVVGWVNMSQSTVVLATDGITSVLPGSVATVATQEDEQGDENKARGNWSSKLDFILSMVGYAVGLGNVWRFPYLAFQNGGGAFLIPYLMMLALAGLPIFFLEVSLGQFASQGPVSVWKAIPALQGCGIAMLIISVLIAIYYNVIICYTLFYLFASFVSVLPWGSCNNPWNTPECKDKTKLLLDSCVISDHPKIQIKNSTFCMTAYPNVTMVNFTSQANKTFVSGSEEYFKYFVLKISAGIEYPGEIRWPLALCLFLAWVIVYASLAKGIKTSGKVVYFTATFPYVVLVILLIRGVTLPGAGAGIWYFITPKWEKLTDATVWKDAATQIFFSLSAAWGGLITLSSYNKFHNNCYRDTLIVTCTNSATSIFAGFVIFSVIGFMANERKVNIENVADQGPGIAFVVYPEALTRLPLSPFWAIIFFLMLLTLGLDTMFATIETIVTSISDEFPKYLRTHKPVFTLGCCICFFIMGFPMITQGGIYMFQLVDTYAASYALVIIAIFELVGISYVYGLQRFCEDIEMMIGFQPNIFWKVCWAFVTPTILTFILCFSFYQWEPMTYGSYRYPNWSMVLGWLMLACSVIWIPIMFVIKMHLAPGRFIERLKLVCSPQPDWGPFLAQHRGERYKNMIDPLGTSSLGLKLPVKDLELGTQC
The assay is described as follows: Recombinant human GlyT2/3H-glycine uptake assay. Type of assay: cell-based. The following applies: HEK293 cells over-expressing human GlyT2; Cytostar-T; 3H-glycine 100 nM; 2 hours. The text has this: (6) Recombinant Human GlyT2/^3H-Glycine Uptake Assay
The human embryonic kidney 293 cell clone (HEK293-hGlyT2) over-expressing the human GlyT2 transporter was generated (the plasmid pCMV6-XL5-hGlyT2 containing the cDNA coding for the human GlyT2 transporter was obtained from Origene, the cDNA for GlyT2 was taken from this plasmid and sub-cloned into pcDNA3.1zeo from Invitrogen).
Human embryonic kidney 293 (HEK 293) cells are used that stably over-express the human GlyT2 […] which is responsible for the uptake of glycine into these cells.
The uptake of ^3H-glycine into the HEK 293 hGlyT2 cells is monitored using the Cytostar-T assay. This assay format is based on the imported radioactive glycine brought into proximity with the scintillant contained within the base of the plate by virtue of the biological processes within the cells. The radioactive decay is converted to a light signal based on the integration of the scintillation matrix into the assay plate.
Method: ^3H-Glycine Uptake Assay
The hGlyT2 over-expressing HEK 293 cells are cultivated in cell culture medium (DMEM+10% fetal calf serum+100 μg/mL Zeocin). For the assay, the medium of the 90% confluent cultures is removed and the cells are washed with DPBS. The cells are detached by the addition of 2 mL AccuMax and resuspended in 10 mL culture medium. The cell suspension is centrifuged at 1000 U/min for 5 min, the supernatant is removed and cells resuspended in expression medium (MEM (medium without glycine)+10% fetal calf serum) without glycine to 200,000 cells/mL and distributed into the Cytostar-T Scintillating 96-well Microplates (40,000 cells/well; 200 μl/well). The lid covered MTPs are then incubated for 24 hours at 37° C.; 5% CO2.
The following day, the cell plates are washed once with 200 μL HBSS/Ala buffer (HBSS 10× (+Ca, +Mg) with 5 mM Alanine adjusted to pH 7.4 with NaOH) following a 1 h incubation at 37° C.; 5% CO2, and subsequently 100 μL/well of HBSS/Ala containing 1.2× the concentration of compound in 1.2% DMSO (test range final: 100 μM-100 nM) incubated for 20 min at 37° C. Following the addition of 20 μL/well ^3H-glycine in HBSS/Ala (final ^3H-glycine concentration 100 nM) and an incubation for 2 hours at 37° C., the assay plate is placed into the Topcount NXT HTS and the signal is recorded.
The IC50 values of the compounds are calculated in IDBS XLfit by sigmoidal dose-response (variable slope).

By IC50 is commonly meant the concentration at which inhibition is half-maximal. Take `O=C(NCc1ccccc1F)C1CCN(S(=O)(=O)c2cc(Cl)cc(Cl)c2)CC1` [(I-2)]: the IC50 is greater than 100 µM.
The value for `Cc1cc(Br)cc(S(=O)(=O)N2CCC(C(=O)NCc3ccccn3)CC2)c1` [(I-61)] was greater than 100 µM.
For the compound `O=C(NCc1ccccn1)C1CCN(S(=O)(=O)c2cc(Cl)cc(Cl)c2)CC1` [(I-11)], the concentration for half-maximal inhibition (IC50) is greater than 100 µM.
Next, `N#Cc1ccc(CNC(=O)C2CCN(S(=O)(=O)c3cc(Cl)cc(Cl)c3)CC2)cc1` [Example (I-1)]: greater than 100 µM; `O=C(NCc1ccc(F)cn1)C1CCN(S(=O)(=O)c2cc(Cl)cc(Cl)c2)CC1` [(I-20)]: greater than 70 µM; `O=C(NCc1ccc(Cl)cc1)C1CCN(S(=O)(=O)c2cc(Cl)cc(Cl)c2)CC1` [(I-5)]: greater than 100 µM.
Turning to `O=C(NCc1ccc(F)cc1)C1CCN(S(=O)(=O)c2cc(Cl)cc(Cl)c2)CC1` [(I-10)], the IC50 is greater than 100 µM.
Regarding `Cc1ccc(CNC(=O)C2CCN(S(=O)(=O)c3cc(Cl)cc(Cl)c3)CC2)nc1` [(I-15)], the half-maximal inhibitory concentration (IC50) was greater than 100 µM.
Next, `Cc1cnc(CNC(=O)C2CCN(S(=O)(=O)c3cc(Cl)cc(Cl)c3)CC2)s1` [(I-27)]: greater than 100 µM.
With `CCOc1cc(Cl)cc(S(=O)(=O)N2CCC(C(=O)NCc3nccs3)CC2)c1` [(I-49)], the IC50 was greater than 100 µM.
